The source of these data is patent publication US10183039B2, “Methods for the production of collagen IV” (Vanderbilt University, priority 2013, dated 2019).

For assay [1], the target named is T1, human peroxidasin (Homo sapiens, UniProt Q92626). Particulars: compared with reagent-grade PBS (FIG. 8D).
Description: (§1) (FIG. 8A) Matrix pellets isolated from KI-treated PFHR9 cell culture were extensively washed into 10 mM phosphate buffer (pH 7.4) supplemented with 100 mM KF to maintain ionic strength. Potassium salts of Cl— or Br— were added in indicated amounts. 1 hr reactions at 37° C. were initiated by addition of H2O2 to 1 mM and stopped by freezing at −20° C. […] Reagent KCl was commercially obtained and unaltered prior to analysis. 100 mM solutions were made with 18MΩ deionized water. (FIG. 8C) Coomassie blue stained gel of collagenase digested PFHR-9 matrix reaction assay. Reaction buffered contained 10 mM phosphate buffer (pH 7.4), 100 mM Br-Free or Commercially obtained reagent grade KCl, as well as 1 mM H2O2 and 200 μM PHG where appropriate. […] Reactions were run for 10 minutes at 37° C. with 10 μM H2O2 as the terminal oxidant. Dose-response curve run in the presence of 1× Br-Free PBS. Reactions were quenched with 0.2 mg/ml Catalase, 20 mM Methionine, and 1 mM PHG. EC50 value±95% C.I. from two independent experiments with each data point plotted and fit.
(§2) HEK293 cells stably transfected with the human peroxidasin coding sequence27 were grown to confluency, and the medium was changed to serum-free DMEM/F12 plus 5 μM hematin plus 5 mM sodium butyrate. […]
The target of assay [2] is T1, human peroxidasin. Kind of assay: biochemical.
Description: as §1, §2

T1 sequence (Q92626 27-1479): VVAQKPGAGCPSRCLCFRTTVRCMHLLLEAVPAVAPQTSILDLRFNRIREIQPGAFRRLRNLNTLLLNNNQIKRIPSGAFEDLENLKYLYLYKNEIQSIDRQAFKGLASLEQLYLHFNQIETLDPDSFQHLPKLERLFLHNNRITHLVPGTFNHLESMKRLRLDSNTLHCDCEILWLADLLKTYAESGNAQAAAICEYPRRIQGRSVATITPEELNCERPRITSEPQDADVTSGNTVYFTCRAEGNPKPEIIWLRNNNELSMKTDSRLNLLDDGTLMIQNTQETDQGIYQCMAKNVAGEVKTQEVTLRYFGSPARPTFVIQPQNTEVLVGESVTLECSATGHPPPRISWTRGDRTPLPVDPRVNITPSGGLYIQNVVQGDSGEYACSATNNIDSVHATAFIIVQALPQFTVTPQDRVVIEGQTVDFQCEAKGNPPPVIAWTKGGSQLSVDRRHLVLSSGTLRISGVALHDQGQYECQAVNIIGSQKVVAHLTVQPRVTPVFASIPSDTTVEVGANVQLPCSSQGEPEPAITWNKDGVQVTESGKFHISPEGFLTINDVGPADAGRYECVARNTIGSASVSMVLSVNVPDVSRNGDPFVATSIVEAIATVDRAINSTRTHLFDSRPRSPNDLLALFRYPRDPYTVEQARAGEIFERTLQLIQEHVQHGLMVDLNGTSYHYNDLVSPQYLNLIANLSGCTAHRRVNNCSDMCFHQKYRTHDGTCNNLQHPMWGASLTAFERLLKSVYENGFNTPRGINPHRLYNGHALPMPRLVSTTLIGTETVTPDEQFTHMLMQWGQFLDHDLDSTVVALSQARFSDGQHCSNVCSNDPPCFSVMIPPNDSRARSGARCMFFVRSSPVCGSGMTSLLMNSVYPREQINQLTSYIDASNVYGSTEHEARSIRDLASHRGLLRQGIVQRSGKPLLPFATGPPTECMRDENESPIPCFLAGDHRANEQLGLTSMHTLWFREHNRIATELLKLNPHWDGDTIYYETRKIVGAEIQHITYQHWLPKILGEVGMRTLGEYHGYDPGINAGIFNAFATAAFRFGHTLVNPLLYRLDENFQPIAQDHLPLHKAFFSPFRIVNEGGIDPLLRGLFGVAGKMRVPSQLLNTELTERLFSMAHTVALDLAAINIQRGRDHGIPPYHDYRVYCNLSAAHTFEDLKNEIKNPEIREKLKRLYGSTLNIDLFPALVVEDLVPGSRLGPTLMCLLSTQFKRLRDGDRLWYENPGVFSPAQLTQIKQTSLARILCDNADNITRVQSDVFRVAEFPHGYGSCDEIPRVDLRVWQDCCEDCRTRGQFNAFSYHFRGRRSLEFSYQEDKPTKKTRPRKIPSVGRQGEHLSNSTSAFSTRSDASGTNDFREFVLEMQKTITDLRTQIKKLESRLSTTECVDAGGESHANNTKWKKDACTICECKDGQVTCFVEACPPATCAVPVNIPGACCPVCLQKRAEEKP

In the case of `Br` [bromide], the “S═N bond formation on Br addition to Br-Free PBS” value at human peroxidasin [1] was “recued the degree of S═N bond formation observed in reagent-grade PBS”. At human peroxidasin [2], the EC50 (usually the concentration at which the effect is half-maximal) was 2.7 µM.
